Structures are written as SMILES.

The assay deals with antigen-induced airway hyperresponsiveness in guinea pigs. The assay can be described thus: Guinea pig airway hyperresponsiveness inhibition (ovalbumin-sensitized, histamine bronchoprovocation). Type of assay: in vivo, guinea pig (male Hartley). As to conditions: 1 mg/kg, i.t., 1 hour before antigen challenge; histamine response 6 h after antigen. As to the method: The compounds of the invention were tested for their ability to inhibit hyperresponsiveness in a guinea pig airway hyperresponsiveness screen according to the following protocol:
Male Hartley guinea pigs (Charles River Laboratories Inc., Wilmington, Mass.) were sensitized to ovalbumin by intraperitoneal injection with a 0.5 mL solution of 10 μg ovalbumin and 10 mg aluminum hydroxide in phosphate-buffered saline. […] Seven to nine weeks after the initial injection, the animals were used to evaluate antigen-induced guinea pig airway responses.
In order to evaluate antigen-induced airway hyperresponsiveness in guinea pigs, a baseline histamine bronchoprovocation was initially conducted in unrestrained animals. Guinea pigs (450-600 g) were placed in a whole body plethysmograph (Buxco Electronics, Troy, N.Y.). The animals were exposed to 5 second bursts of histamine aerosol generated by a DeVilbis ultrasonic nebulizer (Somerset, Pa.). […] Three days after the histamine baseline determination, the guinea pigs were again placed in the whole body plethysmograph and challenged with a 3 second aerosolized burst of 0.1% ovalbumin in phosphate-buffered saline. Six hours after antigen exposure, the development of hyperresponsiveness was evaluated by repeating the histamine bronchoprovocation. Comparisons between treatment groups were based on areas under the histamine dose response curves (AUC).
Test compounds were administered by intratracheal instillation at a dose of 1 mg/kg in PBS (pH 7.2), 1 hour before the antigen challenge. After anesthetizing a guinea pig with inhaled methoxyflurane, an endotracheal tube (18 gauge Teflon® sheath) was visually passed into the trachea with the aid of a fiberoptic light source. Test agents (or PBS for control animals) was dosed through the tube followed by a bolus of air to facilitate dispersion.
Two-way analysis of variance (ANOVA) followed by the Fisher PLSD test was used to evaluate areas under the curve ("AUC") for histamine dose responses in guinea pigs. Significance was accepted for p<0.05.
As for `N=C(N)c1cccc(S(=O)(=O)NCc2ccc(OCCCCOc3ccc(CNS(=O)(=O)c4cccc(C(=N)N)c4)cc3)cc2)c1` [Example 47, 1,4-Bis-{4-[(3-carbamimidoyl-benzenesulfonylamino)-methyl]-phenoxy}-butane], the “Hyperresponsiveness AUC % Inhibition” value is on record as 29%. Under `N=C(N)c1cccc(S(=O)(=O)NCc2ccc(OCCCCCOc3ccc(CNS(=O)(=O)c4cccc(C(=N)N)c4)cc3)cc2)c1` [Example 41, 1,5-Bis-{4-[(3-carbamimidoyl-benzenesulfonylamino)-methyl]-phenoxy}-pentane] stands 95%. Next, `N=C(N)c1ccc2[nH]c(CC(=O)NCc3ccc(OCCCCCOc4ccc(CNC(=O)Cc5nc6cc(C(=N)N)ccc6[nH]5)cc4)cc3)nc2c1` [Example 108]: 68%; `N=C(N)c1ccc(C(=O)NCc2ccc(OCCCCCOc3ccc(CNC(=O)c4ccc(C(=N)N)cc4)cc3)cc2)cc1` [Example 54, 1,5-Bis-{4-[(4-carbamimidoyl-benzenecarbonylamino)-methyl]-phenoxy}-pentane]: 53%; `N=C(N)c1ccc(C(=O)NCc2ccc(OCCCCCCOc3ccc(CNC(=O)c4ccc(C(=N)N)cc4)cc3)cc2)cc1` [Example 56, 1,6-Bis-{4-[(4-carbamimidoyl-benzenecarbonylamino)-methyl]-phenoxy}-hexane]: 62%. Under `N=C(N)c1ccc(S(=O)(=O)NCc2ccc(OCCCOc3ccc(CNS(=O)(=O)c4ccc(C(=N)N)cc4)cc3)cc2)cc1` [Example 50, 1,3-Bis-{4-[(4-carbamimidoyl-benzenesulfonylamino)-methyl]-phenoxy}-propane] stands 50%; under `N=C(N)c1cccc(C(=O)NCc2ccc(OCCCCCOc3ccc(CNC(=O)c4cccc(C(=N)N)c4)cc3)cc2)c1` [Example 55, 1,5-Bis-{4-[(3-carbamimidoyl-benzenecarbonylamino)-methyl]-phenoxy}-pentane], 107%.
